Test results published in EP4775570A1, “CYP11A1 INHIBITOR, PREPARATION METHOD THEREFOR AND USE THEREOF” (Shenzhen Zhongge Biological Technology Co., Ltd., priority 2023, dated 2025).

Experiments:
CYP11A1 = molecular target: T1, CYP11A1 (Homo sapiens, UniProt P05108); experiment: NCI-H295R cellular pregnenolone biosynthesis inhibition assay (ELISA method); format: cell-based; conditions: NCI-H295R cells, 3 days incubation, pregnenolone in cell supernatant by ELISA; read-out: IC50
T1 construct: host or cells: NCI-H295R
T1 sequence (P05108 40-521): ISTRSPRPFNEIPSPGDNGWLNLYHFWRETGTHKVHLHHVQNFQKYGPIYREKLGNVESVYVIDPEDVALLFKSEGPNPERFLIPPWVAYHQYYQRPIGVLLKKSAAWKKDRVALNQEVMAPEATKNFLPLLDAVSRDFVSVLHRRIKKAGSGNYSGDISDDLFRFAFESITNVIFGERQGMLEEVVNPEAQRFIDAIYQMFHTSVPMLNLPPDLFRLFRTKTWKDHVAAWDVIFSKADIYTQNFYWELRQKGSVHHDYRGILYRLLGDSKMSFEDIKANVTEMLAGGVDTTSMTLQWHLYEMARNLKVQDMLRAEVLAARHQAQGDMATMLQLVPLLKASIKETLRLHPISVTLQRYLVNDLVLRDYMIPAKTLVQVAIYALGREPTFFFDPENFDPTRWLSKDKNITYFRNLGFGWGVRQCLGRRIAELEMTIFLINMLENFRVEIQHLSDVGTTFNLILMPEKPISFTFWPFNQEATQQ
How it was run: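 NCI-H295R adrenocortical cells (5,000/well) treated 3 days at 37°C with compounds from 10µM top, 3-fold 10-point series, 0.1% DMSO. Pregnenolone in 5×-diluted supernatant measured by competitive ELISA (A450). Inhibition normalised to 1µM ODM-208 (100%) and DMSO (0%); IC50 by four-parameter fit.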

[1] = PK study, intravenous and oral administration, plasma LC-MS/MS; format: in vivo; conditions: both sexes, 5 mg/kg, oral administration of 5 mpk, species not given (ICR mice or SD Rat); for half-life: read-out: half-life (t1/2) (converted); for bioavailability: read-out: bioavailability (F)
Procedure: ICR mice (male/female, total 6 animals) were assigned to two groups for oral administration and intravenous administration, respectively, with 3 mice in each group. Before administration, the animals were fasted for 10-14 hours, with water available ad lib.
SD Rat (male/female, total 6 animals) were assigned to two groups for oral administration and intravenous administration, respectively, with 3 mice in each group. Before administration, the animals were fasted for 10-14 hours, with water available ad lib.
The compounds to be tested were weighed out in accordance with intended dosage, formulated with vehicles (5% DMSO + 10% Solutol + 85% physiological saline) to dosage form at appropriate concentrations (administered intravenously and orally in rats or mice at a volume of 5 mL/kg and 10 mL/kg, respectively). The dosage form for intravenous injection is a clear solution, and the dosage form for oral administration is a clear solution or homogenous suspension.
Administration to animals was conducted through intravenous injection and oral gavage, and blood samples were collected at 0.033, 0.083, 0.25, 0.5, 1, 2, 4, 8, and 24 hours after intravenous injection, or at 0.083, 0.25, 0.5, 1, 2, 4, 6, 8, and 24 hours after oral administration. After centrifugation of whole blood samples at 4°C and 6,800g for 6 minutes, the upper layers of plasma were stored at -80°C refrigerator before analysis.
The DMSO stock solutions of the substance to be tested were diluted with methanol or acetonitrile solution to serial working solutions and added to blank plasma matrix to formulate samples for standard curve and quality control. An appropriate volume of plasma sample was added with appropriate fold of methanol or acetonitrile containing internal standards, according to response, for protein precipitation. After centrifugation of all samples at 4°C and 18,000g for 10 min, appropriate volumes of supernatant were taken for LC-MS/MS analysis.
Plasma drug concentration-time curves were plotted in accordance with tested concentrations, and pharmacokinetic parameters were calculated based on non-compartmental model using WinNonlin software, including half-life (T1/2), area under the drug concentration-time curve (AUC0-t), clearance rate (CL), steady-state distribution volume (Vss), bioavailability (F), etc.

COc1cc(CN2Cc3ccccc3C2)ccc1CCC1CCN(S(C)(=O)=O)CC1 [compound 53]
IC50 (CYP11A1): < 100 nM
AUC [1]: > 1700 ng·h/mL
half-life [1]: > 3 h

Cn1c(CN2Cc3ccccc3C2)c(F)cc(CCC2CCN(S(C)(=O)=O)CC2)c1=O [compound 72]
IC50 (CYP11A1): < 100 nM
AUC [1]: > 1700 ng·h/mL
bioavailability [1]: > 60%
half-life [1]: > 3 h

Cn1c(CN2Cc3ccccc3C2)c(F)cc(C=CC2CCN(C(=O)CC#N)CC2)c1=O [compound 112]
IC50 (CYP11A1): < 100 nM
AUC [1]: > 1700 ng·h/mL
Cmax [1]: > 1000 ng/mL
bioavailability [1]: > 60%
